Experimental data: patent US6770650B2, “Cyclic amine derivatives-CCR-3 receptor antagonists” (Syntex (U.S.A.) LLC, priority 1997, dated 2004)
Where a name gives a salt, the structure may show the parent alone.

Key:
[1] = target: T1, CCR-3 receptor (Homo sapiens, UniProt P51677); assay: CCR-3 Receptor Binding Assay, inhibition of 125I eotaxin binding to CCR-3 L1.2 transfectant cells; conditions: concentration required to reduce 125I-eotaxin binding to the CCR-3 L1.2 transfected cells by 50%
T1 construct: expressed in transfected cells; host or cells: L1.2 cells (murine pre-B lymphoma line)
T1 sequence (P51677 1-355): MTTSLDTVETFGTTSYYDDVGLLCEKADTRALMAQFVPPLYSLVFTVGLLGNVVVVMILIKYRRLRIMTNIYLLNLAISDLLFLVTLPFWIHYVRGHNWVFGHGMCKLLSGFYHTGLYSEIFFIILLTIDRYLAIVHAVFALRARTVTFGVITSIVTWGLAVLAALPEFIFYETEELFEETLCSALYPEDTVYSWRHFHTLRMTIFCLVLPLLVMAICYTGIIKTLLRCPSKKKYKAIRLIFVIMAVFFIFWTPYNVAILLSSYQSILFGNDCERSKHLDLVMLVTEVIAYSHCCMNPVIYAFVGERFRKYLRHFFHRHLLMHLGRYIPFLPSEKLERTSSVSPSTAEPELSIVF
Experimental: The CCR-3 antagonistic activity of the compounds of the invention was determined by their ability to inhibit the binding of ^125I eotaxin to CCR-3 L1.2 transfectant cells ((see Ponath, P. D. et al., J. Exp. Med., Vol. 183, 2437-2448, (1996)).
The assay was performed in Costar 96-well polypropylene round bottom plates. Test compounds were dissolved in DMSO and then diluted with binding buffer (50 mM HEPES, 1 mM CaCl2, 5 mM MgCl2, 0.5% bovine serum albumin (BSA), 0.02% sodium azide, pH 7.24) such that the final DMSO concentration was 2%. 25 μl of the test solution or only buffer with DMSO (control samples) was added to each well, followed by the addition of 25 μl of ^125I-eotaxin ([…]) (NEX314, New England Nuclear, Boston, Mass.) and 1.5×10^5 of the CCR-3 L1.2 transfected cells in 25 μl binding buffer. The final reaction volume was 75 μl.
After incubating the reaction mixture for 1 h at room temperature, the reaction was terminated by filtering the reaction mixture through polyethylenimine treated Packard Unifilter GF/C filter plate (Packard, Chicago, Ill.). The filters were washed four times with ice cold wash buffer containing 10 mm HEPES and 0.5M sodium chloride (pH 7.2) and dried at 65° C. for approximately 10 min. 25 μl/well of Microscint-20™ scintillation fluid (Packard) was added and the radioactivity retained on the filters was determined by using the Packard TopCount™.
The IC50 value (concentration of test compound required to reduce ^125I-eotaxin binding to the CCR-3 L1.2 transfected cells by 50%) for some of the compounds of the invention was: […]

| Compound | melting point [°C] | IC50 [1] [µM] |
| --- | --- | --- |
| Cc1ccc(C(=O)N[C@H](CN2CCN(Cc3ccc(Cl)c(Cl)c3)CC2)C(C)(C)C)cc1.Cl.Cl | 238 to 242 |  |
| COc1ccc(C(=O)N[C@H](CN2CCN(Cc3ccc(Cl)c(Cl)c3)CC2)C(C)C)cc1.Cl.Cl | 222.5 to 223 |  |
| 1-{1(RS)-[4-(4-Chlorobenzyl)piperazin-1-yl]-2-methylpropyl}-3-(3-methylphenyl)-2-thiourea [compound 107] |  | 1.14 |
| Cc1ccc(C(=O)N[C@H](CN2CCN(Cc3ccc(Cl)c(Cl)c3)CC2)C(C)C)cc1 (as salt: HCl) [compound 8, N-{1(S)-[4-(3,4-Dichlorobenzyl)piperazin-1-ylmethyl]-2-methylpropyl}-4-methylbenzamide dihydrochloride salt] | 229 to 229.6 |  |
| CC(C)C(CN1CCN(Cc2ccc(Cl)c(Cl)c2)CC1)NC(=O)c1ccncc1 (stereo not shown) (as salt: HCl) [compound 20] | 150 to 153 |  |
| CCCC(CN1CCN(Cc2ccc(Cl)c(Cl)c2)CC1)NC(=O)c1ccc(C)cc1 (stereo not shown) (as salt: HCl) [compound 23] | 199.5 to 203.5 |  |
| Cc1ccc(C(=O)N[C@H](CN2CCC(Cc3ccc(Cl)c(Cl)c3)CC2)C(C)C)cc1 (as salt: HCl) [compound 57, N-{1-(S)-[4-(3,4-Dichlorobenzyl)piperidin-1-ylmethyl]-2-methylpropyl}-4-methylbenzamide] | 87 to 90 |  |
| Cc1ccc(C(=O)N[C@H](CN2CCC(Cc3ccc(Cl)c(Cl)c3)CC2)C(C)C)s1 (as salt: HCl) [compound 71, N-{1-(R)-[4-(Dichlorobenzyl)piperidin-1-ylmethyl]-2-methylpropyl}-5-methylthiophene-2-carboxamide Hydrochloride Salt] | 45 to 47.5 |  |
| Cc1ccc(C(=O)N2CCC[C@@H]2CN2CCN(Cc3ccc(Cl)c(Cl)c3)CC2)cc1 (as salt: HCl) [compound 78, {1-(4-Methylbenzoyl)-2(R)-[4-(3,4-dichlorobenzyl)piperazin-1-ylmethyl]}pyrrolidine Dihydrochloride Salt] | 249.6 to 250.1 |  |
| COc1cccc(NC(=O)N[C@H](CN2CCN(Cc3ccc(Cl)c(Cl)c3)CC2)C(C)C)c1 (as salt: HCl) [compound 98, 1-{1(S)-[4-(3,4-Dichlorobenzyl)piperazin-1-ylmethyl]-2-methylpropyl}-3-(3-methoxyphenyl)urea] | 97.5 to 99.5 |  |
| Cc1ccc(NC(=O)N[C@H](CN2CCC(Cc3ccc(Cl)c(Cl)c3)CC2)C(C)(C)C)cc1 (as salt: HCl) [compound 100] | 109.5 to 111 |  |
| Cc1ccc(C(=O)NC(CC2CCN(Cc3ccc(Cl)c(Cl)c3)CC2)C(C)C)cc1 (racemic) (as salt: hydrochloride) [compound 133] | 233.9 to 235.5 |  |
| CC(C)C(CN1CCN(Cc2ccc(Cl)c(Cl)c2)CC1)NC(=O)c1ccccn1.Cl.Cl (racemic) [compound 7, N-{1(RS)-[4-(3,4-Dichlorobenzyl)piperazin-1-ylmethyl]-2-methylpropyl}picolinamide dihydrochloride salt] | 226.2 to 229.9 | 0.415 |
| CC(C)C(CN1CCN(Cc2ccc(Cl)c(Cl)c2)CC1)NC(=O)Cc1cccs1 (racemic) [compound 25, N-{1(RS)-[4-(3,4-Dichlorobenzyl)piperazin-1-ylmethyl]-2-methylpropyl}-2-(thiophene-2-yl)acetamide] |  | 1.46 |
| CC(C)C(CN1CCN(Cc2ccc(Cl)cc2)CC1)NS(=O)(=O)c1ccc(Cl)cc1 (racemic) [compound 118] |  | 1.5 |
| COc1cccc(NC(=O)NC(C(C)C)C2CCN(Cc3ccc(Cl)c(Cl)c3)CC2)c1 (racemic) [compound 132, 1-{1(RS)-[1-(3,4-Dichlorobenzyl)piperidin-4-yl]-2-methylpropyl}-3-(3-methoxyphenyl)urea] | 161.4 to 161.8 |  |
| CC(C)C(CN1CCN(Cc2ccc(Cl)c(Cl)c2)CC1)NS(=O)(=O)c1ccc(F)cc1 (stereo in doubt) [compound 117, N-{1(R)-[4-(3,4-Dichlorobenzyl)piperazin-1-ylmethyl]-2-methylpropyl}-4-flourobenzenesulfonamide] |  | 1.33 |

| Compound | melting point [°C] | IC50 [1] [µM] |
| --- | --- | --- |
| Cc1ccc(C(=O)N[C@H](CN2CCN(Cc3ccc(Cl)c(Cl)c3)CC2)C(C)C)cc1 [compound 8, N-{1(S)-[4-(3,4-Dichlorobenzyl)piperazin-1-ylmethyl]-2-methylpropyl}-4-methylbenzamide dihydrochloride salt] |  | 0.24 |
| CC(C)[C@@H](CN1CCN(Cc2ccc(Cl)c(Cl)c2)CC1)NC(=O)c1ccc2ccccc2c1 [compound 19, N-{1(S)-[4-(3,4-Dichlorobenzyl)piperazin-1-ylmethyl]-2-methylpropyl}-2-naphthaleneamide] |  | 0.945 |
| CC(C)C(CN1CCN(Cc2ccc(Cl)c(Cl)c2)CC1)NC(=O)c1ccncc1 (stereo not shown) [compound 20] |  | 0.952 |
| CCCC(CN1CCN(Cc2ccc(Cl)c(Cl)c2)CC1)NC(=O)c1ccc(C)cc1 (stereo not shown) [compound 23] |  | 1.33 |
| CC(C)C(CN1CCN(Cc2ccc(Cl)c(Cl)c2)CC1)NC(=O)c1ccc2ccccc2n1 (stereo not shown) [compound 24] |  | 1.37 |
| O=C(N[C@@H](CN1CCN(Cc2ccc(Cl)c(Cl)c2)CC1)C1CCCCC1)c1ccc(Cl)cc1 [compound 35, N-{1(R)-cyclohexyl-2-[4-(3,4-dichlorobenzyl)piperazin-1-yl]ethyl}-4-chloro-benzamide] | 149 to 155 |  |
| CC(C)(C)[C@@H](CN1CCC(Cc2ccc(Cl)c(Cl)c2)CC1)NC(=O)c1ccc(Cl)cc1 [compound 61] | 63 to 68 | 1.76 |
| Cc1ccc(C(=O)N2CCC[C@@H]2CN2CCN(Cc3ccc(Cl)c(Cl)c3)CC2)cc1 [compound 78, {1-(4-Methylbenzoyl)-2(R)-[4-(3,4-dichlorobenzyl)piperazin-1-ylmethyl]}pyrrolidine Dihydrochloride Salt] |  | 5.03 |
| CCOc1ccccc1NC(=O)NC(CN1CCN(Cc2ccc(Cl)c(Cl)c2)CC1)C(C)C (stereo not shown) [compound 86] |  | 1.16 |
| CC(C)C(CN1CCN(Cc2ccc(Cl)c(Cl)c2)CC1)NC(=O)Nc1cccc(Br)c1 (stereo not shown) [compound 88] |  | 1.47 |
| CC(C)C(CN1CCN(Cc2ccc(Cl)cc2)CC1)NC(=O)Nc1ccccc1 (stereo not shown) [compound 89] |  | 1.68 |
| CC(=O)c1cccc(NC(=O)NC(CN2CCN(Cc3ccc(Cl)c(Cl)c3)CC2)C(C)C)c1 (stereo not shown) [compound 91] |  | 1.89 |
| COc1cccc(NC(=O)N[C@H](CN2CCC(Cc3ccc(Cl)c(Cl)c3)CC2)C(C)(C)C)c1 [compound 99] | 75.1 to 80.3 | 2.36 |
| Cc1ccc(NC(=O)N[C@H](CN2CCC(Cc3ccc(Cl)c(Cl)c3)CC2)C(C)(C)C)cc1 [compound 100] |  | 2.47 |
| CC(C)C(CN1CCN(Cc2ccc(Cl)cc2)CC1)NC(=S)Nc1cccc2ccccc12 (stereo not shown) [compound 109] |  | 2.84 |
| COc1ccccc1NC(=S)NC(CN1CCN(Cc2ccc(Cl)c(Cl)c2)CC1)C(C)C (stereo not shown) [compound 110] |  | 3.05 |
| CC(C)C(CN1CCN(Cc2ccc(Cl)cc2)CC1)NS(=O)(=O)c1ccc(C(F)(F)F)cc1 (stereo not shown) [compound 121] |  | 3.52 |
